Measured values reported in PubChem BioAssay (NCI).
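Results reflect a 48-hour exposure of cells in 96-well plates to compound at five concentrations. The concentration for 50% growth inhibition is given as GI50. Definition used: TGI = concentration required for complete inhibition of growth.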

Columns and labels:
Experiment in all cases: DTP human tumour cell line panel, 48 h
UO-31 renal = test system: UO-31 renal
PC-3 prostate = test system: PC-3 prostate
SNB-19 CNS = test system: SNB-19 CNS
M14 melanoma = test system: M14 melanoma
IGROV1 ovarian = test system: IGROV1 ovarian
MALME-3M melanoma = test system: MALME-3M melanoma
NCI-H522 lung = test system: NCI-H522 lung
OVCAR-4 ovarian = test system: OVCAR-4 ovarian
786-0 renal = test system: 786-0 renal
EKVX NSCLC = test system: EKVX NSCLC
SK-MEL-2 melanoma = test system: SK-MEL-2 melanoma
SF-268 CNS = test system: SF-268 CNS
HT29 colon = test system: HT29 colon
NCI/ADR-RES ovarian = test system: NCI/ADR-RES ovarian
SK-MEL-28 melanoma = test system: SK-MEL-28 melanoma
COLO 205 colon = test system: COLO 205 colon
A549 NSCLC = test system: A549 NSCLC
RPMI-8226 leukemia = test system: RPMI-8226 leukemia
NCI-H226 lung = test system: NCI-H226 lung
MDA-MB-231 breast = test system: MDA-MB-231 breast
K-562 leukemia = test system: K-562 leukemia
RXF 393 renal = test system: RXF 393 renal
SNB-75 CNS = test system: SNB-75 CNS
SK-MEL-5 melanoma = test system: SK-MEL-5 melanoma
UACC-62 melanoma = test system: UACC-62 melanoma
HS 578T breast = test system: HS 578T breast
KM12 colon = test system: KM12 colon
DU-145 prostate = test system: DU-145 prostate
SW-620 colon = test system: SW-620 colon
SN12C renal = test system: SN12C renal

Q: `CN(C(=O)c1ccc(C(C)(C)C)cc1)c1sc2c(c1C#N)CCC(=O)C2` was tested. Which GI50 (UO-31 renal) did it give?
A: 2.94 µM

Q: What about the TGI (UO-31 renal) of the same compound?
A: 11.2 µM

Q: What about the GI50 (PC-3 prostate) of the same compound?
A: 2.72 µM

Q: What about the TGI (PC-3 prostate) of the same compound?
A: 8.32 µM

Q: And the GI50 (SNB-19 CNS)?
A: 3.7 µM

Q: And the TGI (SNB-19 CNS)?
A: 14.7 µM

Q: And the GI50 (M14 melanoma)?
A: 3.57 µM

Q: What about the TGI (M14 melanoma) of the same compound?
A: 12.8 µM

Q: What about the GI50 (IGROV1 ovarian) of the same compound?
A: 11.7 µM

Q: What about the TGI (IGROV1 ovarian) of the same compound?
A: 25 µM

Q: And the GI50 (MALME-3M melanoma)?
A: 12.6 µM

Q: And the TGI (MALME-3M melanoma)?
A: 26.2 µM

Q: What about the GI50 (NCI-H522 lung) of the same compound?
A: 1.75 µM

Q: What about the TGI (NCI-H522 lung) of the same compound?
A: 3.45 µM

Q: And the GI50 (OVCAR-4 ovarian)?
A: 2.64 µM

Q: What about the TGI (OVCAR-4 ovarian) of the same compound?
A: 8.45 µM

Q: What about the GI50 (786-0 renal) of the same compound?
A: 3.72 µM

Q: What about the TGI (786-0 renal) of the same compound?
A: 13.3 µM

Q: What about the GI50 (EKVX NSCLC) of the same compound?
A: 3.49 µM

Q: What about the TGI (EKVX NSCLC) of the same compound?
A: 14 µM

Q: What about the GI50 (SK-MEL-2 melanoma) of the same compound?
A: 14.5 µM

Q: And the TGI (SK-MEL-2 melanoma)?
A: 28.7 µM

Q: And the GI50 (SF-268 CNS)?
A: 4.79 µM

Q: What about the TGI (SF-268 CNS) of the same compound?
A: 24.3 µM

Q: And the GI50 (HT29 colon)?
A: 17.8 µM

Q: What about the TGI (HT29 colon) of the same compound?
A: 41 µM

Q: And the GI50 (NCI/ADR-RES ovarian)?
A: 2.68 µM

Q: And the TGI (NCI/ADR-RES ovarian)?
A: 7.44 µM

Q: What about the GI50 (SK-MEL-28 melanoma) of the same compound?
A: 11.2 µM

Q: What about the TGI (SK-MEL-28 melanoma) of the same compound?
A: 23.9 µM

Q: What about the GI50 (COLO 205 colon) of the same compound?
A: 19.6 µM

Q: And the TGI (COLO 205 colon)?
A: 37.2 µM

Q: And the GI50 (A549 NSCLC)?
A: 16.8 µM

Q: And the TGI (A549 NSCLC)?
A: 35.3 µM

Q: And the GI50 (RPMI-8226 leukemia)?
A: 2.93 µM

Q: And the GI50 (NCI-H226 lung)?
A: 14.1 µM

Q: What about the TGI (NCI-H226 lung) of the same compound?
A: 38.1 µM

Q: What about the GI50 (MDA-MB-231 breast) of the same compound?
A: 2.84 µM

Q: And the TGI (MDA-MB-231 breast)?
A: 8.49 µM

Q: What about the GI50 (K-562 leukemia) of the same compound?
A: 3.17 µM

Q: What about the TGI (K-562 leukemia) of the same compound?
A: 10.7 µM

Q: And the GI50 (RXF 393 renal)?
A: 1.96 µM

Q: And the TGI (RXF 393 renal)?
A: 4.53 µM

Q: What about the GI50 (SNB-75 CNS) of the same compound?
A: 6.94 µM

Q: What about the TGI (SNB-75 CNS) of the same compound?
A: 24.4 µM

Q: And the GI50 (SK-MEL-5 melanoma)?
A: 2.07 µM

Q: And the TGI (SK-MEL-5 melanoma)?
A: 4.63 µM

Q: And the GI50 (UACC-62 melanoma)?
A: 2.34 µM

Q: What about the TGI (UACC-62 melanoma) of the same compound?
A: 6.4 µM

Q: And the GI50 (HS 578T breast)?
A: 3.89 µM

Q: What about the TGI (HS 578T breast) of the same compound?
A: 28.1 µM

Q: What about the GI50 (KM12 colon) of the same compound?
A: 3.97 µM

Q: What about the TGI (KM12 colon) of the same compound?
A: 14.6 µM

Q: What about the GI50 (DU-145 prostate) of the same compound?
A: 16.7 µM

Q: What about the TGI (DU-145 prostate) of the same compound?
A: 33.4 µM

Q: What about the GI50 (SW-620 colon) of the same compound?
A: 2.06 µM

Q: And the TGI (SW-620 colon)?
A: 4.17 µM

Q: What about the GI50 (SN12C renal) of the same compound?
A: 14 µM

Q: What about the TGI (SN12C renal) of the same compound?
A: 27.2 µM
